Experimental data taken from patent publication US20260041649A1, “ANTI-INFLAMMATORY AGENT” (WATANABE OYSTER LABORATORY, CO., LTD., priority 2023, published 2026).

Tests used:
[1] = tested on: mouse macrophage RAW264.7 cells; assay: Western blotting of proteins related to proliferation; assay type: cell-based; conditions: DHMBA 10 μM, 3 days
Description: RAW264.7 cells (1×10^6 cells/10 ml of medium in 100 mm dish) were cultured for 3 days in a DMEM culture medium containing 10% FBS, 1% P/S, and 1% fungizone in the control group (1% ethanol; 0 μM DHMBA as final concentration) and the DHMBA treated group (10 μM). After the culture, cells were removed from the dish using a cell scraper in a cell lysis buffer containing protease inhibitors. Forty micrograms of supernatant protein per lane were separated by electrophoresis on a 12% SDS-PAGE gel, transferred onto a […], and probed by Western blotting with antibodies against various proteins. […] In FIG. 3(B), band intensities are shown as fold increase over the control. Data are presented as the mean±SD of values obtained from 4 dishes using different cell preparations. *: Significant difference (p<0.001) between the control group and the DHMBA-treated group. Statistical analysis was performed using 1-way ANOVA with Tukey-Kramer post-test.
RAW264.7 cells (1×10^6 cells/10 ml of 100 mm dish) were cultured for 3 days in 10% FBS, 1% P/S (1% ethanol), or in the DHMBA-treated group (10 μM). After the culture, the dishes were washed with cold PBS (10 ml) to remove floating and dead cells. The cell lysis buffer (Cell Signaling Technology, Inc., Danvers, MA, USA) supplemented with protease/protein phosphatase inhibitor (Roche Diagnostics, Indianapolis, IN, USA) was added to the cells to collect cell lysates of the adherent cells as described in the previous study. The cell lysates were centrifuged at 17,000×g, 4° C. for 10 min. Protein concentrations in the supernatants were measured using Bio-Rad Protein Assay Dye (Bio-Rad Laboratories, Inc., Hercules, CA, USA) with bovine serum albumin as a standard. The cell lysates were stored at −80° C. until use. The supernatant proteins (40 μg/lane) were separated by SDS-polyacrylamide gel electrophoresis (12% SDS-PAGE) and transferred to a PVDF membrane. The transferred membranes were immunoblotted with specific antibodies against various proteins, including Ras (cat. no. 3339, rabbit), Akt (cat. no. 9272, rabbit), mitogen-activated protein kinase (MAPK; cat. no. 4695, rabbit), phosphorylated MAPK (cat. no. 4370, rabbit), mechanistic target of rapamycin (mTOR; cat. no. 4517, mouse), Rb (cat. no. 9309, mouse), p21 (cat. no. 2947, rabbit), STAT3 (cat. no. 12640, rabbit), COX-1 (cat. no. 48415), COX-2 (cat. no. 4842), and β-actin (cat. no. 3700, mouse), all of which were purchased from Cell Signaling Technology, Inc. (Danvers, MA, USA). Specific antibodies for p53 (cat. no. sc-126, mouse) and NF-κB p65 (cat. no. sc-109, rabbit) were purchased from Santa Cruz Biotechnology Inc. (Santa Cruz, CA, USA). Additionally, rabbit anti-regucalcin antibody (cat. no. HPA029103, rabbit) was obtained from Sigma-Aldrich. Target proteins were incubated overnight at 4° C. with one of the above primary antibodies (1:1,000). After incubation, the membranes were further incubated with horseradish peroxidase-conjugated secondary antibodies (Santa Cruz Biotechnology Inc., cat. no. sc-2005 (mouse) or sc-2305 (rabbit); dilution 1:2000) for 60 min at room temperature, and protein bands were detected using chemiluminescence substrates (cat. no. 34577, Thermo Fisher Scientific Inc., Rockford, IL, USA) on X-ray films. From 4 independent experiments, a total of 3 or 4 films with separate membranes were scanned with Epson Perfection 1660 Photo scanner to quantify the bands using Image J2 software (National Institutes of Health, Bethesda, MD, USA). In addition, for immunoblotting using additional antibodies, the membranes were incubated at room temperature for 30 min with Restore (registered trademark) Western Blot Stripping Buffer (cat. no. 21059; Thermo Fisher Scientific Inc., Rockford, IL, USA) to remove attached chemiluminescence substrates (Thermo Fisher Scientific Inc.,) and were used to measure other protein molecules.

[2] = tested on: RAW264.7 cells cultured with LPS; assay: Cell proliferation of RAW264.7 cells cultured with LPS; assay type: cell-based, mouse; conditions: DHMBA 1 or 10 μM, LPS 100 ng/ml, 3 days
Description: In FIG. 5A, to examine the effect on cell proliferation, RAW264.7 cells (1×10^5/ml/well) were cultured for 3 days in a DMEM culture medium containing 10% FBS, 1% P/S, and 1% fungizone in the control group (1% ethanol as final concentration) with or without LPS (1, 10, 50, 100, 500 ng/ml). In FIG. 5B, cells (1×10^5/ml per well) were cultured for 3 days in a DMEM culture medium containing 10% FBS, 1% P/S, and 1% fungizone in the DHMBA-treated group (1 or 10 μM) with or without LPS (100 ng/ml). In FIG. 5C, to examine the effect on cell death, cells that had reached subconfluence after 3 days of culture were cultured for another 48 hours in the control group (1% ethanol) with or without LPS (1, 10, 50, 100, or 500 ng/ml). In FIG. 5D, cells that had reached subconfluence were cultured for another 48 hours in the DHMBA-treated group (1 or 10 μM) with or without LPS (100 ng/ml). After the culture, the number of cells attached to the dish was counted. Data are presented as the mean±SD from a total of 8 wells in 2 plates using different cell preparations. *: Significant difference (p<0.01) versus the controls without LPS (gray bars) (FIG. 5A and FIG. 5C) or without DHMBA (gray bars) (FIG. 5B and FIG. 5D). […]
The number of viable cells was counted under a microscope (Olympus MTV-3) using a hemocytometer (Sigma-Aldrich) and a cell counter (H-102P, Line Seiki Co., Ltd., Tokyo, Japan).

COc1c(O)cc(CO)cc1O [DHMBA, 3,5-dihydroxy-4-methoxybenzyl alcohol]
expression level of Rb [1]: increased | expression level of p21 [1]: increased | expression level of p53 [1]: increased | expression level of regucalcin [1]: increased | level of Akt [1]: decreased | level of MAPK [1]: decreased | level of PI3 kinase [1]: decreased | level of Ras [1]: decreased | level of mTOR [1]: decreased | level of phospho-MAPK [1]: decreased | proliferation of RAW264.7 cells in the presence of LPS [2]: suppressed
